SMILES strings stand for the structures.

The first assay addresses BRD4 (Homo sapiens, UniProt O60885). The assay can be described thus: Time resolved fluorescence resonance energy transfer (TR-FRET) binding assay, bromodomain BRD4. The following applies: FRET BRD4 IC50 (nM), one of the FRET assays described. Background: In TR-FRET formats the signal depends on donor and acceptor labels being close together.
In the case of `[2H]C([2H])([2H])c1nnn(C)c1-c1cnc2c3ccc(N4C5CCCC4CC5)nc3n([C@H](c3ccccc3)C3CCOCC3)c2c1` [Example 184, 11-{8-Azabicyclo[3.2.1]octan-8-yl}-5-[4-(^2H3)methyl-1-methyl-1H-1,2,3-triazol-5-yl]-8-[(S)-oxan-4-yl(phenyl)methyl]-3,8,10-triazatricyclo[7.4.0.0^2,^7]trideca-1(9),2(7),3,5,10,12-hexaene], the IC50 is < 10 nM.

Staying with this assay, now noted: one of the FRET assays described; read-out: FRET BRD4 IC50.
`Cc1nnn(C)c1-c1cnc2c3ccc(S(=O)(=O)N4CCCC4)nc3n([C@H](c3ccccc3)C3CCOCC3)c2c1` [Example 196, 5-(Dimethyl-1H-1,2,3-triazol-5-yl)-8-[(S)-oxan-4-yl(phenyl)methyl]-11-(pyrrolidine-1-sulfonyl)-3,8,10-triazatricyclo[7.4.0.0^2,^7]trideca-1(9),2(7),3,5,10,12-hexaene]: the IC50 is < 10 nM.

Consider `Cc1nnn(C)c1-c1cnc2c3ccc(N4CCN(C)CC4)nc3n([C@H](c3ccccc3F)C3CCOCC3)c2c1` [Example 231, 5-(Dimethyl-1H-1,2,3-triazol-5-yl)-8-[(S)-(2-fluorophenyl)(oxan-4-yl)methyl]-11-(4-methylpiperazin-1-yl)-3,8,10-triazatricyclo[7.4.0.0^2,^7]trideca-1(13),2(7),3,5,9,11-hexaene], for which the half-maximal inhibitory concentration (IC50) was < 10 nM. In the case of `Cc1nnn(C)c1-c1cnc2c3c(Cl)nc(C(C)(C)O)cc3n([C@H](c3ccccc3)C3CCOCC3)c2c1` [Example 294, 2-{13-chloro-5-[4-(^2H3)methyl-1-methyl-1H-1,2,3-triazol-5-yl]-8-[(S)-oxan-4-yl(phenyl)methyl]-3,8,12-triazatricyclo[7.4.0.0^2,^7]trideca-1(13),2(7),3,5,9,11-hexaen-11-yl}propan-2-ol], the IC50 is < 10 nM. For `COc1ccc2c3ncc(-c4c(C)nnn4C)cc3n(C(c3ccccc3F)C3CCOCC3)c2n1` (racemic) [Example 28, 5-(Dimethyl-1H-1,2,3-triazol-5-yl)-8-[(2-fluorophenyl)(oxan-4-yl)methyl]-11-methoxy-3,8,10-triazatricyclo[7.4.0.0^2,^7]trideca-1(13),2(7),3,5,9,11-hexaene], the IC50 was < 10 nM.

With `[2H]C([2H])([2H])c1nnn(C)c1-c1cnc2c3c(C(C)(C)O)cncc3n([C@H](c3ccccc3)C3CCOCC3)c2c1` [Example 298, 2-{5-[4-(^2H3)Methyl-1-methyl-1H-1,2,3-triazol-5-yl]-8-[(S)-oxan-4-yl(phenyl)methyl]-3,8,11-triazatricyclo[7.4.0.0^2,^7]trideca-1(9),2(7),3,5,10,12-hexaen-13-yl}propan-2-ol], the IC50 is < 10 nM. The same measure, in the same setting: in the case of `Cc1nnn(C)c1-c1cnc2c3ccc(-c4c(C)nnn4C)nc3n([C@H](c3ccccc3)C3CCOCC3)c2c1` [Example 163, 5,11-Bis(dimethyl-1H-1,2,3-triazol-5-yl)-8-[(S)-oxan-4-yl(phenyl)methyl]-3,8,10-triazatricyclo[7.4.0.0^2,^7]trideca-1(9),2(7),3,5,10,12-hexaene] it was < 1 nM; in that of `COc1nnn(C)c1-c1cnc2c3ccc(N4CCN(C)CC4)nc3n([C@H](c3ccccc3F)C3CCOCC3)c2c1` [Example 254, 8-[(S)-(2-Fluorophenyl)(oxan-4-yl)methyl]-5-(4-methoxy-1-methyl-1H-1,2,3-triazol-5-yl)-11-(4-methylpiperazin-1-yl)-3,8,10-triazatricyclo[7.4.0.0^2,^7]trideca-1(13),2(7),3,5,9,11-hexaene], < 1 nM; in that of `COc1ncc(CO)c2c1c1ncc(-c3c(C)nnn3C)cc1n2[C@H](c1ccccc1)C1CCOCC1` [Example 136, [5-(Dimethyl-1H-1,2,3-triazol-5-yl)-13-methoxy-8-[(S)-oxan-4-yl(phenyl)methyl]-3,8,12-triazatricyclo[7.4.0.0^2,^7]trideca-1(9),2,4,6,10,12-hexaen-10-yl]methanol], < 10 nM. With `Cc1nnn(C)c1-c1cnc2c3cnc(C(C)(C)O)cc3n([C@H](c3ccc(F)cc3)C3CCOCC3)c2c1` [Example 336], the IC50 is < 10 nM. As to `[2H]C([2H])([2H])c1nnn(C)c1-c1cnc2c3ccc(S(C)(=O)=O)nc3n([C@H](c3ccccc3F)C3CCOCC3)c2c1` [Example 235, 8-[(S)-(2-Fluorophenyl)(oxan-4-yl)methyl]-11-methanesulfonyl-5-[4-(^2H3)methyl-1-methyl-1H-1,2,3-triazol-5-yl]-3,8,10-triazatricyclo[7.4.0.0^2,^7]trideca-1(13),2(7),3,5,9,11-hexaene], the IC50 is < 10 nM.

On to `COc1nccc2c3ncc(-c4c(C)nnn4C)cc3n(C(c3cccc(F)c3)C3CCOCC3)c12` (single isomer, unassigned) [Example 20, 5-(Dimethyl-1H-1,2,3-triazol-5-yl)-8-[(3-fluorophenyl)(oxan-4-yl)methyl]-10-methoxy-3,8,11-triazatricyclo[7.4.0.0^2,^7]trideca-1(13),2(7),3,5,9,11-hexaene], for which the IC50 is < 10 nM. `COc1cc2c(c(C)n1)c1ncc(-c3c(C)nnn3C)cc1n2[C@H](c1ccccc1)C1CCOCC1` [Example 283, 5-(Dimethyl-1H-1,2,3-triazol-5-yl)-11-methoxy-13-methyl-8-[(S)-oxan-4-yl(phenyl)methyl]-3,8,12-triazatricyclo[7.4.0.0^2,^7]trideca-1(9),2(7),3,5,10,12-hexaene]: the IC50 was < 1 nM. Same read-out and setting: in the case of `[2H]C([2H])([2H])c1nnn(C)c1-c1cnc2c3ccc(-c4c(C([2H])([2H])[2H])nnn4C)nc3n(C(c3ccccc3)C3CCC(F)(F)CC3)c2c1` (centres unmarked) [Example 261, 8-[(4,4-Difluorocyclohexyl)(phenyl)methyl]-5,11-bis[4-(^2H3)methyl-1-methyl-H-1,2,3-triazol-5-yl]-3,8,10-triazatricyclo[7.4.0.0^2,^7]trideca-1(13),2(7),3,5,9,11-hexaene] it was < 10 nM; in that of `[2H]C([2H])([2H])c1nnn(C)c1-c1cnc2c3ccc(N4CCNCC4)nc3n([C@H](c3ccccc3)C3CCOCC3)c2c1` [Example 251, 5-[4-(^2H3)Methyl-1-methyl-1H-1,2,3-triazol-5-yl]-8-[(S)-oxan-4-yl(phenyl)methyl]-11-(piperazin-1-yl)-3,8,10-triazatricyclo[7.4.0.0^2,^7]trideca-1(13),2(7),3,5,9,11-hexaene], < 10 nM. As to `[2H]C([2H])([2H])C(C)(O)c1ccc2c3ncc(-c4c(C)nnn4C)cc3n([C@H](c3ccccc3)C3CCOCC3)c2n1` (stereo partly drawn) [Example 177, 2-[5-(Dimethyl-1H-1,2,3-triazol-5-yl)-8-[(S)-oxan-4-yl(phenyl)methyl]-3,8,10-triazatricyclo[7.4.0.0^2,^7]trideca-1(9),2(7),3,5,10,12-hexaen-11-yl](1,1,1-^2H3)propan-2-ol], the IC50 is < 1 nM.

For `Cc1nnn(C)c1-c1ccc2c3ncc(C(C)(C)O)cc3n([C@@H](c3ccccc3)C3CCOCC3)c2n1` [Example 378, 2-[11-(Dimethyl-1H-1,2,3-triazol-5-yl)-8-[(R)-oxan-4-yl(phenyl)methyl]-3,8,10-triazatricyclo[7.4.0.0^2,^7]trideca-1(9),2(7),3,5,10,12-hexaen-5-yl]propan-2-ol], the IC50 was < 10 nM. The same measure, in the same setting: under `[2H]C([2H])([2H])c1nnn(C)c1-c1cnc2c3cnc(N4CCN(C)CC4)cc3n([C@H](c3ccccc3F)C3CCOCC3)c2c1` [Example 244, 8-[(S)-(2-Fluorophenyl)(oxan-4-yl)methyl]-5-[4-(^2H3)methyl-1-methyl-1H-1,2,3-triazol-5-yl]-11-(4-methylpiperazin-1-yl)-3,8,12-triazatricyclo[7.4.0.0^2,^7]trideca-1(13),2(7),3,5,9,11-hexaene] stands < 10 nM. Regarding `Cc1nnn(C)c1-c1cnc2c3ccnc(Cl)c3n([C@H](c3ccccc3F)C3CCOCC3)c2c1` [Example 5, 10-Chloro-5-(dimethyl-1H-1,2,3-triazol-5-yl)-8-[(S)-(2-fluorophenyl)(oxan-4-yl)methyl]-3,8,11-triazatricyclo[7.4.0.0^2,^7]trideca-1(13),2(7),3,5,9,11-hexaene], the concentration for half-maximal inhibition (IC50) is < 10 nM. On the same count and under the same terms, under `[2H]C([2H])([2H])c1nnn(C)c1-c1cnc2c3c(OCC)nccc3n([C@H](c3ccccc3)C3CCOCC3)c2c1` [Example 129, 13-Ethoxy-5-[4-(^2H3)methyl-1-methyl-1H-1,2,3-triazol-5-yl]-8-[(S)-oxan-4-yl(phenyl)methyl]-3,8,12-triazatricyclo[7.4.0.0^2,^7]trideca-1(13),2(7),3,5,9,11-hexaene] stands < 1 nM; under `COc1ncc(Cl)c2c1c1ncc(-c3c(C)nnn3C)cc1n2[C@H](c1ccccc1)C1CCOCC1` [Example 39, 10-Chloro-5-(dimethyl-1H-1,2,3-triazol-5-yl)-13-methoxy-8-[(S)-oxan-4-yl(phenyl)methyl]-3,8,11-triazatricyclo[7.4.0.0^2,^7]trideca-1(13),2(7),3,5,9,11-hexaene], < 10 nM; under `COc1nccc2c1c1ncc(-c3c(C)nnn3C)cc1n2[C@H](c1ccccc1F)C1CCOCC1` [Example 30, 5-(Dimethyl-1H-1,2,3-triazol-5-yl)-8-[(S)-(2-fluorophenyl)(oxan-4-yl)methyl]-13-methoxy-3,8,12-triazatricyclo[7.4.0.0^2,^7]trideca-1(9),2(7),3,5,10,12-hexaene], < 1 nM. Same read-out and setting: under `Cc1noc(C)c1-c1cnc2c3cc(C(C)(C)O)cnc3n([C@H](c3ccccc3)C3CCOCC3)c2c1` [Example 351, 2-[5-(Dimethyl-1,2-oxazol-4-yl)-8-[(S)-oxan-4-yl(phenyl)methyl]-3,8,10-triazatricyclo[7.4.0.0^2,^7]trideca-1(13),2(7),3,5,9,11-hexaen-12-yl]propan-2-ol] stands < 1500 nM; under `Cc1nnn(C)c1-c1cc2c(cn1)c1ncc(C(C)(C)O)cc1n2[C@H](c1ccccc1)C1CCOCC1` [Example 368], < 10 nM. Still for that read-out and setting: under `[2H]C([2H])([2H])c1nnn(C)c1-c1cnc2c3cnc(Cl)cc3n([C@H](c3ccccc3F)C3CCOCC3)c2c1` [Example 315] stands < 10 nM; under `Cc1nnn(C)c1-c1cnc2c3ccnc(NCCO)c3n([C@H](c3ccccc3)C3CCOCC3)c2c1` [Example 11, 2-{[5-(Dimethyl-1H-1,2,3-triazol-5-yl)-8-[(S)-oxan-4-yl(phenyl)methyl]-3,8,11-triazatricyclo[7.4.0.0^2,^7]trideca-1(13),2(7),3,5,9,11-hexaen-10-yl]amino}ethan-1-ol], < 10 nM.

For orientation: IC50 means the concentration at which inhibition is half-maximal.

The values above are taken from patent publication US9725449B2, “Tricyclic compounds as anticancer agents” (BRISTOL-MYERS SQUIBB COMPANY, priority 2015, dated 2017).
